The values below come from EP0367671B1, “Novel beta-D-phenylthioxylosides, their method of preparation and their use as pharmaceuticals” (FOURNIER INDUSTRIE ET SANTE, priority 1988, dated 1990).

The subject of this assay is venous thrombosis. In words: venous thrombosis protocol (venous stasis under hypercoagulation with activated factor X, Wessler technique; thrombus removed and weighed). In kind it is in vivo. The settings on record: Rattus norvegicus, po; 12.5 mg/kg p.o., suspension in PEG 400; thrombosis induced 4 hours after treatment; unfasted male Wistar rats. How it is done:
A venous stasis is produced under hypercoagulation according to the technique described by WESSLER et al. (J. Applied Physiol. 1959, p. 943-946). As in the technique described by J. HAUPMAN et al. (Thrombosis and Haemostasis 43 (2) 1980, p. 118), the hypercoagulant used is a solution of activated factor X (Xa) supplied by the company Flow Laboratories (71 Knat per 12.5 ml of physiological serum).
The study is performed on unfasted male Wistar rats weighing 250 to 280 g and divided up into groups of 10 animals each. The test products are administered orally as a suspension in PEG 400. A thrombosis is induced 4 hours after this treatment and the thrombus formed is removed and weighed.
The results obtained at a dose of 12.5 mg/kg p.o. have been collated in Table I. The results obtained with the known products of the above-mentioned prior art have also been collated in this Table.
`N#Cc1ccc(S[C@@H]2SC[C@@H](O)[C@H](O)[C@H]2O)c(C(=O)c2ccccc2)c1` [Example 1, (2-benzoyl-4-cyanophenyl)-1,5-dithio-β-D-xylopyranoside]: the inhibition in vivo (as a rule, the share of the control response that was lost under treatment) at 12.5 mg/kg was found to be 69%.
Regarding `CC(=O)O[C@@H]1[C@@H](OC(C)=O)[C@H](Sc2ccc(C#N)cc2C(=O)c2ccccc2)SC[C@H]1OC(C)=O` [Example 1a, (2-benzoyl-4-cyanophenyl)-2,3,4-tri-O-acetyl-1,5-dithio-β-D-xylopyranoside], testing at 12.5 mg/kg gave an inhibition in vivo of 43.8%.
Compound `N#Cc1ccc(S[C@@H]2SC[C@@H](O)[C@H](O)[C@H]2O)c(C(O)c2ccccc2)c1` (stereo partly drawn) [Example 2, (4-cyano-2-phenylhydroxymethylphenyl)-1,5-dithio-β-D-xylopyranoside] yielded an inhibition in vivo at 12.5 mg/kg of 61%.
On to `O=C(c1ccccc1)c1ccccc1S[C@@H]1SC[C@@H](O)[C@H](O)[C@H]1O` [Example 3, (2-benzoylphenyl)-1,5-dithio-β-D-xylopyranoside], for which the inhibition in vivo at 12.5 mg/kg stood at 4%.
Next, `N#Cc1ccc(C(=O)c2ccccc2S[C@@H]2SC[C@@H](O)[C@H](O)[C@H]2O)cc1` [Example 4, (2-(4-cyanobenzoyl)phenyl)-1,5-dithio-β-D-xylopyranoside]: 88%.
Turning to `N#Cc1ccc(C(O)c2ccccc2S[C@@H]2SC[C@@H](O)[C@H](O)[C@H]2O)cc1` (stereo partly drawn) [Example 5, (2-(4-cyanophenylhydroxymethyl)phenyl)-1,5-dithio-β-D-xylopyranoside], at 12.5 mg/kg the inhibition in vivo was 62%.
The figure for `N#Cc1cccc(C(=O)c2ccccc2S[C@@H]2SC[C@@H](O)[C@H](O)[C@H]2O)c1` [Example 6, (2-(3-cyanobenzoyl)phenyl)-1,5-dithio-β-D-xylopyranoside] is 59%; for `N#Cc1cccc(C(O)c2ccccc2S[C@@H]2SC[C@@H](O)[C@H](O)[C@H]2O)c1` (stereo partly drawn) [Example 7, (2-(3-cyanophenylhydroxymethyl)phenyl)-1,5-dithio-β-D-xylopyranoside] it is 54%; for `N#Cc1ccccc1C(=O)c1ccccc1S[C@@H]1SC[C@@H](O)[C@H](O)[C@H]1O` [Example 8, (2-(2-cyanobenzoyl)phenyl)-1,5-dithio-β-D-xylopyranoside] it is 57%.
`N#Cc1ccc(C(=O)c2cc(C(F)(F)F)ccc2S[C@@H]2SC[C@@H](O)[C@H](O)[C@H]2O)cc1` [Example 9, (2-(4-cyanobenzoyl)-4-trifluoromethylphenyl)-1,5-dithio-β-D-xylopyranoside]: at 12.5 mg/kg the inhibition in vivo was 56.5%.
Next, `N#Cc1ccc(C(O)c2cc(C(F)(F)F)ccc2S[C@@H]2SC[C@@H](O)[C@H](O)[C@H]2O)cc1` (stereo partly drawn) [Example 10, (2-(4-cyanophenylhydroxymethyl)-4-trifluoromethylphenyl)-1,5-dithio-β-D-xylopyranoside]: 61%.
